The numbers were not newly measured in patent US20070155664A1, “Parathyroid hormone (pth) containing pharmaceutical compositions for oral use” (Nycomed Danmark A/S, priority 2003, published 2007), which cites them from elsewhere.

One data set relates to pre-menopausal women. The note with it: 1200 mg calcium supplements daily, three menstrual cycles; placebo 48%.
The next data set relates to postmenopausal women. The note with it: calcium supplementation.

`[Ca+2]` [calcium]: the “oral administered dose absorbed” value (oral) is 20-33%. In addition, the absorption efficiency entry (young adult, on average) is listed as “about 30%”. Also, the “women with PMS related symptoms” value in the data set on pre-menopausal women is 30%. In addition, in the data set on postmenopausal women, the “reduced bone loss, on average” value is given as “about 1 % year”.
